Test results taken from publication PMC4380447, “Infrared Fluorescent Imaging as a Potent Tool for In Vitro, Ex Vivo and In Vivo Models of Visceral Leishmaniasis” (PLoS Neglected Tropical Diseases, 2015).
Like-named read-outs stand apart in the source and are kept apart here.

Tested on: HSP70+L. infantum amastigotes
Assay: ex vivo splenic explant culture of infrared HSP70+L. infantum-infected BALB/c mice, infrared fluorescence readout (384-well)
Assay type: cell-based
Settings: Leishmania infantum
From the text: Several parameters were included in the development of the explant culture. i) Parasite infection rate is not equal in all animals from the same batch, thus in order to normalize the ex vivo culture, only spleens with weights ≥ 0.7 g were selected to prepare the ex vivo explants. ii) The starting cell density was adjusted in terms of fluorescence emission in a wide range of arbitrary units (0.25, 0.5, 1.0, and 2.0 x 10^5 AU). Since we intend to evaluate the drug inhibition in ex vivo cultures for at least 4 days, the initial number of AU that matched this condition was chosen. iii) Discrimination between drug-treated and untreated control cells was assessed by adding amphotericin B (AmpB) to the explants cultures. iv) To prevent the edge effect caused by evaporation from outer wells in assays with multi-day incubations, the top and bottom rows as well as the first and last columns were filled with ddH2O. In addition, the positive and negative controls were symmetrically distributed through the columns.
A total of 298 compounds belonged to three distinct collections including i) indenoisoquinolines obtained from Dr. Mark S. Cushman, Department of Medicinal Chemistry and Molecular Pharmacology (Purdue University, Indiana, USA.); ii) podophylotoxin and quinones were a kindly gift from Dr. Arturo San Feliciano, Deparment of Química Farmacéutica (Universidad de Salamanca, Spain) and iii) carbolins obtained from Dr. Sankaran Murugeshan, Department of Pharmacy, (Birla Institute of Technology & Science, Pilani, India). Stock solutions consisted of test compound at a concentration of 200 μM in 20% DMSO. The 200 μM master plates were further diluted by transferring aliquots of 5 μl into black 384-well plates with clear bottom containing 45 μl of culture medium. The final concentration of DMSO in both assay and control wells not exceeded 1% (v/v). […] The plates were incubated at 37 °C and 5% CO2 and at 0, 24, 48 and 72 h the infrared signal was recorded using the Odyssey infrared system (LI-COR, USA). […]
The antileishmanial effect of the compounds was calculated as the percentage inhibition in relation to AmpB and DMSO as follows: (mean of 1%DMSO–Experimental Value) / (mean of 1%DMSO–mean of AmpBEC100) x 100. […] The quality of the assay was given by Z’ factor that was calculated as 1 –[(3SD positive controls + 3SD negative controls) / (mean of the positive controls–mean of the negative controls)]. […]
Firstly, we checked the fluorescence dynamic range in which we could assure the effective and quantifiable replication of intracellular parasites inside macrophages in the absence of active drug over the course of the ex vivo culture. […] For this purpose, we fixed the fluorescence level per well, instead of adjusting the number of cells. […]

## C[C@@H]1[C@H](O)[C@@H](C)/C=C/C=C/C=C/C=C/C=C/C=C/C=C/[C@H](O[C@@H]2O[C@H](C)[C@@H](O)[C@H](N)[C@@H]2O)C[C@@H]2O[C@](O)(C[C@@H](O)C[C@@H](O)[C@H](O)CC[C@@H](O)C[C@@H](O)CC(=O)O[C@H]1C)C[C@H](O)[C@H]2C(=O)O [AmpB, amphotericin B]
72 h, across all starting cell densities (1.0, 2.0 and 4.0 x10^5 AU), read-out: IC50 values at 72 h
  IC50: 0.27 to 0.38 µM
Starting cell density High: 4x10^5 AU, ten 2-fold dilutions from 10 μM, Fig 4E
  IC50: 0.31 ± 0.05 µM
Starting cell density Low: 1x10^5 AU, ten 2-fold dilutions from 10 μM, Fig 4C
  IC50: 0.38 ± 0.06 µM
Starting cell density Medium: 2x10^5 AU, ten 2-fold dilutions from 10 μM, Fig 4D
  IC50: 0.27 ± 0.04 µM
